# Source: the supplement of paper PMC8149375
# Columns and labels:
# Conditions in all cases: treatment: drug + dasatinib (fixed dose, not stated); 5 days
# [1] = system: 769-P; assay: GI50 of drug in presence of dasatinib; higher = less potent
# Method: (§1)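 Primary HTS combination arm: 8 RCC cell lines treated with 8 doses (up to 10 uM) of each library drug plus a fixed dose of dasatinib (dose not stated) for 5 days; viability read by CellTiter-Glo and normalised to DMSO. GI50 was fitted with XLfit, AUC is the area under the dose-response curve, and minimum viability is the lowest fraction of DMSO viability across doses.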
# [2] = system: 786-O; assay: as above
# Method: as §1
# [3] = system: A498; assay: as above
# Method: as §1
# [4] = system: ACHN; assay: as above
# Method: as §1
# [5] = system: CAKI-1; assay: as above
# Method: as §1
# [6] = system: SN12C; assay: as above
# Method: as §1
# [7] = system: TK-10; assay: as above
# Method: as §1
# [8] = system: UO-31; assay: as above
# Method: as §1
# [9] = system: 769-P; assay: minimum viability across doses, drug + dasatinib, relative to DMSO (fraction); higher = less growth inhibition
# Method: as §1
# [10] = system: 786-O; assay: as above
# Method: as §1
# [11] = system: A498; assay: as above
# Method: as §1
# [12] = system: ACHN; assay: as above
# Method: as §1
# [13] = system: CAKI-1; assay: as above
# Method: as §1
# [14] = system: SN12C; assay: as above
# Method: as §1
# [15] = system: TK-10; assay: as above
# Method: as §1
# [16] = system: UO-31; assay: as above
# Method: as §1
# [17] = system: 769-P; assay: AUC of dose-response viability curve, drug + dasatinib, normalised to DMSO (arbitrary (AUC of normalised viability)); higher = less growth inhibition
# Method: as §1
# [18] = system: 786-O; assay: as above
# Method: as §1
# [19] = system: A498; assay: as above
# Method: as §1
# [20] = system: ACHN; assay: as above
# Method: as §1
# [21] = system: CAKI-1; assay: as above
# Method: as §1
# [22] = system: SN12C; assay: as above
# Method: as §1
# [23] = system: TK-10; assay: as above
# Method: as §1
# [24] = system: UO-31; assay: as above
# Method: as §1
GI50 of drug [2],GI50 of drug [4],SMILES,GI50 of drug [1],GI50 of drug [3],GI50 of drug [5],GI50 of drug [6],GI50 of drug [7],GI50 of drug [8],minimum viability across doses [9],minimum viability across doses [10],minimum viability across doses [11],minimum viability across doses [12],minimum viability across doses [13],minimum viability across doses [14],minimum viability across doses [15],minimum viability across doses [16],AUC of dose-response viability curve [17],AUC of dose-response viability curve [18],AUC of dose-response viability curve [19],AUC of dose-response viability curve [20],AUC of dose-response viability curve [21],AUC of dose-response viability curve [22],AUC of dose-response viability curve [23],AUC of dose-response viability curve [24]
> 10 µM,> 10 µM,Cc1cc(C)c(/C=C2\C(=O)Nc3ccccc32)[nH]1 [Semaxanib (SU5416)] + Cc1nc(Nc2ncc(C(=O)Nc3c(C)cccc3Cl)s2)cc(N2CCN(CCO)CC2)n1 [dasatinib],> 10 µM,> 10 µM,> 10 µM,> 10 µM,> 10 µM,> 10 µM,0.658,0.606,1.01,0.472,0.584,0.666,0.657,1.2,2.48,2.4,3.96,1.99,2.21,2.46,2.54,4.67
2.2 µM,3.17 µM,CNC(=O)c1cc(Oc2ccc(NC(=O)Nc3ccc(Cl)c(C(F)(F)F)c3)cc2)ccn1.Cc1ccc(S(=O)(=O)O)cc1 [Sorafenib (Nexavar)] + Cc1nc(Nc2ncc(C(=O)Nc3c(C)cccc3Cl)s2)cc(N2CCN(CCO)CC2)n1 [dasatinib],3.77 µM,7.05 µM,4.81 µM,5.96 µM,9.08 µM,1.53 µM,0.249,0.174,0.245,0.0615,0.118,0.265,0.471,0.138,2.31,2.32,2.94,2.33,2.42,2.52,2.72,2.41
> 10 µM,> 10 µM,CN1CCN(c2nc(C3=C(c4c[nH]c5ccccc45)C(=O)NC3=O)c3ccccc3n2)CC1 [Sotrastaurin (AEB071)] + Cc1nc(Nc2ncc(C(=O)Nc3c(C)cccc3Cl)s2)cc(N2CCN(CCO)CC2)n1 [dasatinib],> 10 µM,> 10 µM,> 10 µM,> 10 µM,> 10 µM,> 10 µM,0.673,0.674,0.904,0.536,0.555,0.661,0.663,1.16,2.3,3.14,3.6,2.04,2.44,2.45,2.84,4.79
2.52 µM,0.281 µM,CCN(CC)CCNC(=O)c1c(C)[nH]c(/C=C2\C(=O)Nc3ccc(F)cc32)c1C.O=C(O)C[C@H](O)C(=O)O [Sunitinib Malate (Sutent)] + Cc1nc(Nc2ncc(C(=O)Nc3c(C)cccc3Cl)s2)cc(N2CCN(CCO)CC2)n1 [dasatinib],3.14 µM,2.02 µM,0.496 µM,1.53 µM,2.86 µM,1.02 µM,0.0812,0.0195,0.167,0.0769,0.00649,0.0218,0.221,0.0138,2.26,2.49,2.52,1.58,1.81,1.88,2.52,2.59
0.171 µM,0.235 µM,CCS(=O)(=O)c1cccc(-c2cc(C(=O)NC3CCN(C)CC3)c(C)c3[nH]c4ncc(C)cc4c23)c1 [TAK-901] + Cc1nc(Nc2ncc(C(=O)Nc3c(C)cccc3Cl)s2)cc(N2CCN(CCO)CC2)n1 [dasatinib],4.01 µM,0.588 µM,0.318 µM,0.347 µM,0.607 µM,8.85 µM,0.344,0.00567,0.013,0.0237,0.0186,0.00509,0.0604,0.287,2.27,1.55,2.63,1.5,1.62,1.52,1.93,4.3
> 10 µM,2.73 µM,Nc1nc(N)c2nc(-c3cccc(O)c3)c(-c3cccc(O)c3)nc2n1 [TG100-115] + Cc1nc(Nc2ncc(C(=O)Nc3c(C)cccc3Cl)s2)cc(N2CCN(CCO)CC2)n1 [dasatinib],6.88 µM,> 10 µM,3.15 µM,> 10 µM,> 10 µM,> 10 µM,0.463,0.681,0.882,0.368,0.308,0.637,0.739,1.03,2.32,2.76,3.23,2.04,2.12,2.52,2.71,3.95
2.54 µM,0.346 µM,NC(=O)Nc1sc(-c2ccc(F)cc2)cc1C(N)=O [TPCA-1] + Cc1nc(Nc2ncc(C(=O)Nc3c(C)cccc3Cl)s2)cc(N2CCN(CCO)CC2)n1 [dasatinib],2.18 µM,> 10 µM,0.458 µM,> 10 µM,0.848 µM,3.72 µM,0.232,0.258,0.711,0.184,0.076,0.405,0.176,0.212,2.22,2.09,3.33,1.7,1.81,2.35,1.94,3.28
> 10 µM,> 10 µM,Cc1[nH]c(/C=C2\C(=O)Nc3ccccc32)c(C)c1CCC(=O)O [TSU-68] + Cc1nc(Nc2ncc(C(=O)Nc3c(C)cccc3Cl)s2)cc(N2CCN(CCO)CC2)n1 [dasatinib],> 10 µM,> 10 µM,> 10 µM,> 10 µM,> 10 µM,> 10 µM,0.66,0.61,0.699,0.512,0.595,0.609,0.74,1.07,2.42,2.39,3.61,1.94,2.29,2.32,2.77,1.95
1.21 µM,0.344 µM,CC(C)c1ccccc1Cc1cc(C(=O)Nc2ccc(S(=O)(=O)c3ccccc3C(C)(C)C)cc2)c(O)c(O)c1O [TW-37] + Cc1nc(Nc2ncc(C(=O)Nc3c(C)cccc3Cl)s2)cc(N2CCN(CCO)CC2)n1 [dasatinib],1.57 µM,> 10 µM,0.506 µM,> 10 µM,3.06 µM,9.77 µM,0.0407,0.124,0.773,0.0767,0.0425,0.519,0.325,0.416,2.19,2.07,3.28,1.58,1.77,2.6,2.18,4.4
3.57 µM,0.287 µM,Nc1cccc(-c2cc3c(Oc4cccc(O)c4)ncnc3[nH]2)c1 [TWS119] + Cc1nc(Nc2ncc(C(=O)Nc3c(C)cccc3Cl)s2)cc(N2CCN(CCO)CC2)n1 [dasatinib],0.798 µM,> 10 µM,1.74 µM,3.6 µM,1.48 µM,3.66 µM,0.0643,0.288,0.653,0.126,0.07,0.25,0.0898,0.0374,1.93,2.39,3.56,1.62,2.11,2.33,2.34,3.25
> 10 µM,3.27 µM,COc1cc2c(N3CCN(C(=O)Nc4ccc(OC(C)C)cc4)CC3)ncnc2cc1OCCCN1CCCCC1 [Tandutinib (MLN518)] + Cc1nc(Nc2ncc(C(=O)Nc3c(C)cccc3Cl)s2)cc(N2CCN(CCO)CC2)n1 [dasatinib],> 10 µM,> 10 µM,4.78 µM,> 10 µM,> 10 µM,> 10 µM,0.555,0.523,0.705,0.387,0.384,0.644,0.647,0.527,2.45,2.67,2.96,2.15,2.35,2.45,2.83,3.35
4 µM,7.5 µM,CNC(=O)c1cc(COc2nnc(Nc3ccc(Cl)cc3)c3ccoc23)ccn1 [Telatinib (BAY 57-9352)] + Cc1nc(Nc2ncc(C(=O)Nc3c(C)cccc3Cl)s2)cc(N2CCN(CCO)CC2)n1 [dasatinib],5.53 µM,> 10 µM,3.47 µM,> 10 µM,4.84 µM,> 10 µM,0.355,0.0325,0.784,0.474,0.188,0.673,0.334,0.989,2.25,2.23,3.74,2.22,2.19,2.51,2.45,4
0.264 µM,1.2 µM,CC(=O)Nc1ccc(NC(=S)NC(=O)c2ccc(C(C)(C)C)cc2)cc1 [Tenovin-1] + Cc1nc(Nc2ncc(C(=O)Nc3c(C)cccc3Cl)s2)cc(N2CCN(CCO)CC2)n1 [dasatinib],0.554 µM,0.854 µM,> 10 µM,> 10 µM,2.84 µM,0.825 µM,0.125,0.00416,0.0745,0.385,0.498,0.656,0.342,0.0071,1.91,1.53,2.71,1.95,2.19,2.47,2.2,3

SMILES,GI50 of drug [2],GI50 of drug [4],GI50 of drug [1],GI50 of drug [3],GI50 of drug [5],GI50 of drug [6],GI50 of drug [7],GI50 of drug [8],minimum viability across doses [9],minimum viability across doses [10],minimum viability across doses [11],minimum viability across doses [12],minimum viability across doses [13],minimum viability across doses [14],minimum viability across doses [15],minimum viability across doses [16],AUC of dose-response viability curve [17],AUC of dose-response viability curve [18],AUC of dose-response viability curve [19],AUC of dose-response viability curve [20],AUC of dose-response viability curve [21],AUC of dose-response viability curve [22],AUC of dose-response viability curve [23],AUC of dose-response viability curve [24]
CN[C@@H]1C[C@H]2O[C@@](C)([C@@H]1OC)n1c3ccccc3c3c4c(c5c6ccccc6n2c5c31)C(=O)NC4 [Staurosporine] + Cc1nc(Nc2ncc(C(=O)Nc3c(C)cccc3Cl)s2)cc(N2CCN(CCO)CC2)n1 [dasatinib],< 0.003 µM,0.0036 µM,< 0.003 µM,0.0323 µM,< 0.003 µM,0.0104 µM,< 0.003 µM,< 0.003 µM,0.0048,0.00375,0.0115,0.00268,0.00221,0.00331,0.0201,0.0095,0.201,0.109,1.07,0.372,0.0603,0.755,0.303,0.0461
